Active and inactive are the calls of the source. The calls are words filed in the database; no cut-off is given here.
Columns and labels:
Hepacivirus hominis = assay: Inhibition of HCV N-terminal His-tagged NS5B RNA dependent RNA polymerase expressed in Escherichia coli DH5alpha using poly rA/U12 as primer at 200 uM after 60 mins by liquid scintillation counting
Salmonella paratyphi [1] = assay: Antibacterial activity against Salmonella paratyphi at 10 mg/ml after 24 hrs by disc diffusion method; type: functional, organism-based; conditions: Salmonella enterica subsp. enterica serovar Paratyphi A
Staphylococcus cohnii [2] = assay: Antibacterial activity against Staphylococcus cohnii at 10 mg/ml after 24 hrs by disc diffusion method; type: functional
Kluyveromyces marxianus = assay: Antifungal activity against Kluyveromyces marxianus at 10 mg/ml after 48 hrs by disc diffusion method; type: functional, organism-based
Staphylococcus aureus [3] = assay: Antibacterial activity against Staphylococcus aureus at 6.25 to 200 ug/ml after 24 hrs by microwell dilution assay; type: functional, organism-based
Micrococcus lylae [4] = assay: Antibacterial activity against Micrococcus lylae at 6.25 to 200 ug/ml after 24 hrs by microwell dilution method; type: functional, organism-based
Photorhabdus luminescens [5] = assay: Antibacterial activity against Photorhabdus luminescens at 10 mg/ml after 24 hrs by disc diffusion method; type: functional, organism-based
Candida parapsilosis = assay: Antifungal activity against Candida parapsilosis at 10 mg/ml after 48 hrs by disc diffusion method; type: functional, organism-based
Micrococcus lylae [6] = assay: Antibacterial activity against Micrococcus lylae at 10 mg/ml after 24 hrs by disc diffusion method; type: functional, organism-based
Pseudomonas aeruginosa [7] = assay: Antibacterial activity against Pseudomonas aeruginosa at 6.25 to 200 ug/ml after 24 hrs by microwell dilution method; type: functional, organism-based
Proteus vulgaris [8] = assay: Antibacterial activity against Proteus vulgaris at 6.25 to 200 ug/ml after 24 hrs by microwell dilution method; type: functional, organism-based
Candida tropicalis = assay: Antifungal activity against Candida tropicalis at 10 mg/ml after 48 hrs by disc diffusion method; type: functional, organism-based
Pichia membranifaciens = assay: Antifungal activity against Pichia membranifaciens at 10 mg/ml after 48 hrs by disc diffusion method; type: functional, organism-based
Staphylococcus cohnii [9] = assay: Antibacterial activity against Staphylococcus cohnii at 6.25 to 200 ug/ml after 24 hrs by microwell dilution assay; type: functional, organism-based
Pseudomonas aeruginosa [10] = assay: Antibacterial activity against Pseudomonas aeruginosa at 10 mg/ml after 24 hrs by disc diffusion method; type: functional, organism-based
[11] = test system: Acinetobacter radioresistens; assay: Antibacterial activity against Acinetobacter radioresistens at 6.25 to 200 ug/ml after 24 hrs by microwell dilution method; type: functional, organism-based
Micrococcus luteus [12] = assay: Antibacterial activity against Micrococcus luteus at 6.25 to 200 ug/ml after 24 hrs by microwell dilution method; type: functional, organism-based
Salmonella paratyphi [13] = assay: Antibacterial activity against Salmonella paratyphi at 6.25 to 200 ug/ml after 24 hrs by microwell dilution method; type: functional, organism-based; conditions: Salmonella enterica subsp. enterica serovar Paratyphi A
Nakaseomyces glabratus = assay: Antifungal activity against Candida glabrata at 10 mg/ml after 48 hrs by disc diffusion method; type: functional, organism-based
Escherichia coli [14] = assay: Antibacterial activity against Escherichia coli at 6.25 to 200 ug/ml after 24 hrs by microwell dilution method; type: functional, organism-based
Klebsiella aerogenes [15] = assay: Antibacterial activity against Enterobacter aerogenes at 6.25 to 200 ug/ml after 24 hrs by microwell dilution method; type: functional, organism-based
[16] = test system: Schwanniomyces occidentalis; assay: Antifungal activity against Schwanniomyces occidentalis at 10 mg/ml after 48 hrs by disc diffusion method; type: functional, organism-based
Aspergillus = assay: Antifungal activity against Aspergillus at 10 mg/ml after 72 hrs by disc diffusion method; type: functional, organism-based
Micrococcus luteus [17] = assay: Antibacterial activity against Micrococcus luteus at 10 mg/ml after 24 hrs by disc diffusion method; type: functional, organism-based
Candida albicans = assay: Antifungal activity against Candida albicans at 10 mg/ml after 48 hrs by disc diffusion method; type: functional, organism-based
[18] = test system: Acinetobacter radioresistens; assay: Antibacterial activity against Acinetobacter radioresistens at 10 mg/ml after 24 hrs by disc diffusion method; type: functional, organism-based
Photorhabdus luminescens [19] = assay: Antibacterial activity against Photorhabdus luminescens at 6.25 to 200 ug/ml after 24 hrs by microwell dilution method; type: functional, organism-based
Escherichia coli [20] = assay: Antibacterial activity against Escherichia coli at 10 mg/ml after 24 hrs by disc diffusion method; type: functional, organism-based
Proteus vulgaris [21] = assay: Antibacterial activity against Proteus vulgaris at 10 mg/ml after 24 hrs by disc diffusion method; type: functional, organism-based
Staphylococcus aureus [22] = assay: Antibacterial activity against Staphylococcus aureus at 10 mg/ml after 24 hrs by disc diffusion method; type: functional
Klebsiella aerogenes [23] = assay: Antibacterial activity against Enterobacter aerogenes at 10 mg/ml after 24 hrs by disc diffusion method; type: functional, organism-based

| SMILES | inhibition (Hepacivirus hominis) | Activity (Salmonella paratyphi [1]) | Activity (Staphylococcus cohnii [2]) | Activity (Kluyveromyces marxianus) | Activity (Staphylococcus aureus [3]) | Activity (Micrococcus lylae [4]) | Activity (Photorhabdus luminescens [5]) | Activity (Candida parapsilosis) | Activity (Micrococcus lylae [6]) | Activity (Pseudomonas aeruginosa [7]) | Activity (Proteus vulgaris [8]) | Activity (Candida tropicalis) | Activity (Pichia membranifaciens) | Activity (Staphylococcus cohnii [9]) | Activity (Pseudomonas aeruginosa [10]) | Activity [11] | Activity (Micrococcus luteus [12]) | Activity (Salmonella paratyphi [13]) | Activity (Nakaseomyces glabratus) | Activity (Escherichia coli [14]) | further results |
| --- | --- | --- | --- | --- | --- | --- | --- | --- | --- | --- | --- | --- | --- | --- | --- | --- | --- | --- | --- | --- | --- |
| CC(C(=O)NNC(=S)Nc1ccccc1)c1ccc(-c2ccccc2)c(F)c1 (configuration not stated) | 8% | inactive | inactive | inactive | inactive | inactive | inactive | inactive | inactive | inactive | inactive | inactive | inactive | inactive | inactive | inactive | inactive | inactive | inactive | inactive | Activity (Klebsiella aerogenes [15]): inactive; Activity [16]: inactive; Activity (Aspergillus): inactive; Activity (Micrococcus luteus [17]): inactive; Activity (Candida albicans): inactive; Activity [18]: inactive; Activity (Photorhabdus luminescens [19]): inactive; Activity (Escherichia coli [20]): inactive; Activity (Proteus vulgaris [21]): inactive; Activity (Staphylococcus aureus [22]): inactive; Activity (Klebsiella aerogenes [23]): inactive |
| C=CCNC(=S)NNC(=O)C(C)c1ccc(-c2ccccc2)c(F)c1 (configuration not stated) | 8% | inactive | inactive | inactive | inactive | inactive | inactive | inactive | inactive | inactive | inactive | inactive | inactive | inactive | inactive | inactive | inactive | inactive | inactive | inactive | Activity (Klebsiella aerogenes [15]): inactive; Activity [16]: inactive; Activity (Aspergillus): inactive; Activity (Micrococcus luteus [17]): inactive; Activity (Candida albicans): inactive; Activity [18]: inactive; Activity (Photorhabdus luminescens [19]): inactive; Activity (Escherichia coli [20]): inactive; Activity (Proteus vulgaris [21]): inactive; Activity (Staphylococcus aureus [22]): inactive; Activity (Klebsiella aerogenes [23]): inactive |
| CC(C(=O)NN1C(=O)CSC1c1ccccc1F)c1ccc(-c2ccccc2)c(F)c1 (configuration not stated) | 8% | inactive | inactive | inactive | inactive | inactive | inactive | inactive | inactive | inactive | inactive | inactive | inactive | inactive | inactive | inactive | inactive | inactive | inactive | inactive | Activity (Klebsiella aerogenes [15]): inactive; Activity [16]: inactive; Activity (Aspergillus): inactive; Activity (Micrococcus luteus [17]): inactive; Activity (Candida albicans): inactive; Activity [18]: inactive; Activity (Photorhabdus luminescens [19]): inactive; Activity (Escherichia coli [20]): inactive; Activity (Proteus vulgaris [21]): inactive; Activity (Staphylococcus aureus [22]): inactive; Activity (Klebsiella aerogenes [23]): inactive |
| CC(C(=O)N/N=C/c1ccc(F)cc1)c1ccc(-c2ccccc2)c(F)c1 (configuration not stated) | 8% | inactive | inactive | inactive | inactive | inactive | inactive | inactive | inactive | inactive | inactive | inactive | inactive | inactive | inactive | inactive | inactive | inactive | inactive | inactive | Activity (Klebsiella aerogenes [15]): inactive; Activity [16]: inactive; Activity (Aspergillus): inactive; Activity (Micrococcus luteus [17]): inactive; Activity (Candida albicans): inactive; Activity [18]: inactive; Activity (Photorhabdus luminescens [19]): inactive; Activity (Escherichia coli [20]): inactive; Activity (Proteus vulgaris [21]): inactive; Activity (Staphylococcus aureus [22]): inactive; Activity (Klebsiella aerogenes [23]): inactive |
| CC(C(=O)NN1C(=O)CSC1c1ccccc1Cl)c1ccc(-c2ccccc2)c(F)c1 (configuration not stated) | 70% | inactive | inactive | inactive | inactive | inactive | inactive | inactive | inactive | inactive | inactive | inactive | inactive | inactive | inactive | inactive | inactive | inactive | inactive | inactive | Activity (Klebsiella aerogenes [15]): inactive; Activity [16]: inactive; Activity (Aspergillus): inactive; Activity (Micrococcus luteus [17]): inactive; Activity (Candida albicans): inactive; Activity [18]: inactive; Activity (Photorhabdus luminescens [19]): inactive; Activity (Escherichia coli [20]): inactive; Activity (Proteus vulgaris [21]): inactive; Activity (Staphylococcus aureus [22]): inactive; Activity (Klebsiella aerogenes [23]): inactive |
| CNC(=S)NNC(=O)C(C)c1ccc(-c2ccccc2)c(F)c1 (configuration not stated) | 8% | inactive | inactive | inactive | inactive | inactive | inactive | inactive | inactive | inactive | inactive | inactive | inactive | inactive | inactive | inactive | inactive | inactive | inactive | inactive | Activity (Klebsiella aerogenes [15]): inactive; Activity [16]: inactive; Activity (Aspergillus): inactive; Activity (Micrococcus luteus [17]): inactive; Activity (Candida albicans): inactive; Activity [18]: inactive; Activity (Photorhabdus luminescens [19]): inactive; Activity (Escherichia coli [20]): inactive; Activity (Proteus vulgaris [21]): inactive; Activity (Staphylococcus aureus [22]): inactive; Activity (Klebsiella aerogenes [23]): inactive |
| C=CCN1C(=O)CS/C1=N\NC(=O)C(C)c1ccc(-c2ccccc2)c(F)c1 (configuration not stated) | 8% | inactive | inactive | inactive | inactive | inactive | inactive | inactive | inactive | inactive | inactive | inactive | inactive | inactive | inactive | inactive | inactive | inactive | inactive | inactive | Activity (Klebsiella aerogenes [15]): inactive; Activity [16]: inactive; Activity (Aspergillus): inactive; Activity (Micrococcus luteus [17]): inactive; Activity (Candida albicans): inactive; Activity [18]: inactive; Activity (Photorhabdus luminescens [19]): inactive; Activity (Escherichia coli [20]): inactive; Activity (Proteus vulgaris [21]): inactive; Activity (Staphylococcus aureus [22]): inactive; Activity (Klebsiella aerogenes [23]): inactive |
